The results in this text go back to PubChem BioAssay (NCI).

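Dose response: 5 concentrations. Exposure: 48 h. Format: 96-well plates. Endpoint: linear interpolation; highest concentration if not reached. GI50 marks 50% less growth. At the TGI there is no net growth.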 Bounds are passed on as bounds.

Among the test systems are A549 NSCLC; HCT-116 colon; U251 CNS; MALME-3M melanoma; NCI-H226 lung; T-47D breast; UACC-257 melanoma; M14 melanoma; OVCAR-3 ovarian; EKVX NSCLC.
Test in all cases: NCI tumour cell line growth inhibition, 48 h

Turning to `CC1(C)N=C(N)N=C(N)N1c1ccc(OCCCCNC(=O)c2ccc(S(=O)(=O)F)cc2)c(Cl)c1`, the GI50 with A549 NSCLC is 4.17 µM; in the test on HCT-116 colon it was 3.53 µM; in the test on U251 CNS, 5.65 µM; in the test with MALME-3M melanoma it was more than 100 µM; in the test with NCI-H226 lung it was 76 µM; in the test on T-47D breast, more than 100 µM. Also, the GI50 was 6.36 µM in the test on UACC-257 melanoma, 8.89 µM in the test with M14 melanoma and 50.4 µM in the test on OVCAR-3 ovarian. The TGI in the test on A549 NSCLC, in the test on HCT-116 colon, with U251 CNS, in the test with MALME-3M melanoma, with NCI-H226 lung and in the test with T-47D breast was more than 100 µM each time. Besides, the TGI in the test on UACC-257 melanoma, in the test on M14 melanoma and with OVCAR-3 ovarian was more than 100 µM each time.
Turning to `N#Cc1ccc2c(c1)C(=O)c1c-2n(CCCN=[N+]=[N-])c(=O)c2cc([N+](=O)[O-])ccc12`, the GI50 in the test with HCT-116 colon is 3.91 µM; in the test on U251 CNS, 4.49 µM; with EKVX NSCLC it was more than 50 µM; with MALME-3M melanoma it was more than 50 µM; in the test with NCI-H226 lung it was 40 µM; in the test with T-47D breast, 8.63 µM. The figures for the GI50 with UACC-257 melanoma, with M14 melanoma and with OVCAR-3 ovarian were more than 50 µM, 29.9 µM and more than 50 µM, respectively. Further, the TGI in the test with HCT-116 colon, in the test with U251 CNS, with EKVX NSCLC, in the test on MALME-3M melanoma, with NCI-H226 lung and in the test with T-47D breast was more than 50 µM each time. Besides, the TGI with UACC-257 melanoma, in the test on M14 melanoma and in the test with OVCAR-3 ovarian was more than 50 µM each time.
Regarding `Cc1cc(Cl)ccc1NC(=O)NC(C)(C)COC(=O)Nc1cccc(Cl)c1`, the GI50 is 5.05 µM in the test with A549 NSCLC; 6.3 µM in the test on HCT-116 colon; 4.56 µM with U251 CNS; 9.6 µM with MALME-3M melanoma; 13.6 µM with NCI-H226 lung; 5.55 µM in the test on T-47D breast. For the same compound, the GI50 with UACC-257 melanoma is 8.23 µM; with M14 melanoma, 8.38 µM; in the test with OVCAR-3 ovarian, 3.78 µM. In addition, the TGI with A549 NSCLC is 66.4 µM; in the test on HCT-116 colon, more than 100 µM; in the test with U251 CNS it was 19.3 µM; in the test on MALME-3M melanoma, 50.3 µM; in the test with NCI-H226 lung it was more than 100 µM; with T-47D breast, more than 100 µM. In addition, the TGI with UACC-257 melanoma was 42.5 µM; in the test with M14 melanoma it was more than 100 µM; with OVCAR-3 ovarian, 12.7 µM.
As for `C(#Cc1ccccc1C#Cc1ccccn1)c1ccccn1`, the GI50 with A549 NSCLC is 20.5 µM; with HCT-116 colon it was 26.4 µM; in the test on U251 CNS, 11.5 µM; in the test with EKVX NSCLC it was 20.5 µM; with MALME-3M melanoma, 7.74 µM; with NCI-H226 lung it was 16.6 µM. The GI50 with T-47D breast was 19.4 µM; with UACC-257 melanoma, 19.3 µM; with M14 melanoma it was 22.1 µM. Also, the TGI is 44.3 µM in the test on A549 NSCLC; more than 100 µM in the test with HCT-116 colon; 25.3 µM with U251 CNS; 40.2 µM in the test on EKVX NSCLC; 21 µM in the test with MALME-3M melanoma; 37.9 µM in the test on NCI-H226 lung. Moreover, the results for the TGI in the test on T-47D breast, with UACC-257 melanoma and in the test with M14 melanoma were 46.3 µM, 39.8 µM and more than 100 µM, respectively.
In the case of `C=C1C[C@@H]2[C@H](CC[C@]3(C)C(=O)CC[C@@H]23)[C@@]2(C)C=CC(=O)C=C12`, the GI50 in the test with A549 NSCLC is 11.5 µM; with HCT-116 colon, 14.7 µM; in the test on U251 CNS, 23.5 µM; in the test with EKVX NSCLC, more than 59.2 µM; in the test on MALME-3M melanoma, more than 43.9 µM; in the test on NCI-H226 lung, 20.2 µM. Moreover, the values for the GI50 in the test with T-47D breast, in the test on M14 melanoma and with OVCAR-3 ovarian were more than 51.6 µM, 20.4 µM and 26.5 µM, respectively. For the same compound, the TGI in the test with A549 NSCLC was more than 51.8 µM; in the test with HCT-116 colon it was 29.9 µM; in the test on U251 CNS, more than 70.5 µM; in the test on EKVX NSCLC, more than 100 µM; in the test with MALME-3M melanoma it was more than 73.4 µM; in the test with NCI-H226 lung, more than 60 µM. Besides, the TGI in the test with T-47D breast is more than 100 µM; in the test on M14 melanoma it was more than 48.7 µM; in the test with OVCAR-3 ovarian, more than 66.3 µM.
For the compound `Cc1ccc(S(=O)(=O)c2ccsc2N)cc1`, the GI50 in the test on A549 NSCLC was more than 100 µM; with HCT-116 colon, more than 100 µM; in the test on U251 CNS, more than 100 µM; in the test with MALME-3M melanoma, more than 100 µM; in the test on NCI-H226 lung, 45.9 µM; in the test on T-47D breast, more than 100 µM. In addition, the GI50 is more than 100 µM with UACC-257 melanoma, more than 100 µM in the test with M14 melanoma and 56.1 µM with OVCAR-3 ovarian. Moreover, the TGI in the test with A549 NSCLC, in the test on HCT-116 colon, in the test with U251 CNS, in the test on MALME-3M melanoma, with NCI-H226 lung and with T-47D breast was more than 100 µM each time. Besides, the TGI in the test on UACC-257 melanoma, in the test with M14 melanoma and in the test with OVCAR-3 ovarian was more than 100 µM each time.
As to `Cc1[nH]n(-c2ccccc2)c(=O)c1C(=O)c1ccccc1`, the GI50 in the test on A549 NSCLC is 11.7 µM; in the test on HCT-116 colon it was more than 25 µM; in the test on U251 CNS, 16.2 µM; with MALME-3M melanoma it was more than 25 µM; in the test with NCI-H226 lung, more than 25 µM; in the test with T-47D breast, more than 25 µM. Moreover, the GI50 in the test on UACC-257 melanoma, in the test on M14 melanoma and with OVCAR-3 ovarian was more than 25 µM in each case. Besides, the TGI in the test with A549 NSCLC, in the test on HCT-116 colon, in the test on U251 CNS, in the test on MALME-3M melanoma, with NCI-H226 lung and with T-47D breast was more than 25 µM throughout. Besides, the TGI in the test with UACC-257 melanoma, in the test with M14 melanoma and in the test with OVCAR-3 ovarian was more than 25 µM in each case.
Regarding `O=c1[nH]cnc2nc(-c3ccc(N(CCCl)CCCl)cc3)[nH]c12`, the GI50 with A549 NSCLC was 6.19 µM; with HCT-116 colon, 12.6 µM; with U251 CNS it was 20.1 µM; in the test on EKVX NSCLC, 11 µM; in the test on MALME-3M melanoma it was 33 µM; in the test on NCI-H226 lung, 7.13 µM. For the same compound, the GI50 in the test with T-47D breast is 2.85 µM; in the test with M14 melanoma, 4.97 µM; in the test with OVCAR-3 ovarian, 22.8 µM. Moreover, the TGI in the test on A549 NSCLC is more than 100 µM; with HCT-116 colon it was more than 100 µM; in the test on U251 CNS, more than 100 µM; with EKVX NSCLC it was more than 100 µM; in the test with MALME-3M melanoma, more than 100 µM; in the test with NCI-H226 lung it was 80.6 µM. Also, the TGI with T-47D breast is more than 100 µM; with M14 melanoma it was more than 100 µM; with OVCAR-3 ovarian, 79.6 µM.
